The values below come from patent US7713965B2, “7-substituted 3-carboxy-oxadiazino-quinolone derivatives, their preparation and their application as anti-bacterials” (Vetoquinol SA, priority 2008, dated 2010).

The melting point is the temperature of the solid-liquid transition.

`CO/N=C1\CCN(c2c(F)cc3c(=O)c(C(=O)O)cn4c3c2OCN4C)C1` (hydrate or solvate): the melting point lay within 241 to 243 °C.
For `CC1Oc2c(N3CC[C@@H](Nc4nccs4)C3)ccc3c(=O)c(C(=O)O)cn(c23)N1C` (some centres unmarked) (hydrate or solvate) the value was 260 to 263 °C.
Then `CN1COc2c(N3CC[C@@H](n4ccnn4)C3)c(F)cc3c(=O)c(C(=O)O)cn1c23` (hydrate or solvate), with 235 °C (dec.); and `CN1COc2c(N3CC[C@H](n4ccnn4)C3)c(F)cc3c(=O)c(C(=O)O)cn1c23` (hydrate or solvate), with 235 °C (dec.); and `CN1n2cc(C(=O)O)c(=O)c3cc(F)c(N4CC[C@H](NC(=O)C(F)(F)F)C4)c(c32)OC1(C)C` (hydrate or solvate) [51], with 217 to 219 °C.
Regarding `CN1n2cc(C(=O)O)c(=O)c3cc(F)c(N4CC[C@H](NC(=O)C(F)(F)F)C4)c(c32)OC1(C)C` (hydrate or solvate) [53], the melting point amounted to 283 °C.
Regarding `CN1COc2c(N3CCC(CNc4cnccn4)C3)c(F)cc3c(=O)c(C(=O)O)cn1c23` (centres unmarked) (hydrate or solvate) [Example 1, 8-fluoro-3-methyl-6-oxo-9-[3-(pyrazin-2-ylaminomethyl)-pyrrolidin-1-yl]-2,3-dihydro-6H-1-oxa-3,3a-diaza-phenalene-5-carboxylic acid], the melting point lay in the range of 238 to 240 °C.
With `CN1COc2c(N3CCC(Nc4cnccn4)C3)c(F)cc3c(=O)c(C(=O)O)cn1c23` (centres unmarked) (hydrate or solvate) [Example 7], the melting point was 269 °C (dec.).
For `CN1COc2c(N3CCC(Nc4ccccn4)C3)c(F)cc3c(=O)c(C(=O)O)cn1c23` (centres unmarked) (hydrate or solvate) [Example 8] the value was 278 to 280 °C.
Then `CN1COc2c(N3CCC(Nc4nncs4)C3)c(F)cc3c(=O)c(C(=O)O)cn1c23` (centres unmarked) (hydrate or solvate) [Example 10, 8-Fluoro-3-methyl-6-oxo-9-[3-([1,3,4]thiadiazol-2-ylamino)-pyrrolidin-1-yl]-2,3-dihydro-6H1-oxa-3,3a-diaza-phenalene-5-carboxylic acid], with 320 °C (dec.); and `CN1COc2c(N3CC[C@H](Nc4nccs4)C3)c(F)cc3c(=O)c(C(=O)O)cn1c23` (hydrate or solvate) [Example 18, 8-Fluoro-3-methyl-6-oxo-9-[(S)-3-(thiazol-2-ylamino)-pyrrolidin-1-yl]-2,3dihydro-6H-1-oxa-3,3a-diaza-phenalene-5-carboxylic acid], with 275 °C; and `CN1COc2c(N3CC[C@@H](Nc4nccs4)C3)c(F)cc3c(=O)c(C(=O)O)cn1c23` (hydrate or solvate) [Example 19, 8-Fluoro-3-methyl-6-oxo-9-[(R)-3-(thiazol-2-ylamino)-pyrrolidin-1-yl]-2,3-dihydro-6H-1-oxa-3,3a-diaza-phenalene-5-carboxylic acid], with 245 to 250 °C.
For `CN1COc2c(N3CCC(NC(=O)C(F)(F)F)C3)c(F)cc3c(=O)c(C(=O)O)cn1c23` (centres unmarked) (hydrate or solvate) [Example 27, 8-Fluoro-3-methyl-6-oxo-9-[3-(2,2,2-trifluoro-acetylamino)-pyrrolidin-1-yl]-2,3-dihydro-6H-1-oxa-3,3a-diaza-phenalene-5-carboxylic acid], the melting point lay within 281 to 283 °C.
For `CN1COc2c(N3CC[C@H](NC(=O)C(F)(F)F)C3)c(F)cc3c(=O)c(C(=O)O)cn1c23` (hydrate or solvate) [Example 28, 8-Fluoro-3-methyl-6-oxo-9-[(S)-3-(2,2,2-trifluoro-acetylamino)-pyrrolidin-1-yl]-2,3-dihydro-6H-1-oxa-3,3a-diaza-phenalene-5-carboxylic acid] the value was 273 to 275 °C.
For `CN1COc2c(N3CC[C@@H](NC(=O)C(F)(F)F)C3)c(F)cc3c(=O)c(C(=O)O)cn1c23` (hydrate or solvate) [Example 29, 8-Fluoro-3-methyl-6-oxo-9-[(R)-3-(2,2,2-trifluoro-acetylamino)-pyrrolidin-1-yl]-2,3-dihydro-6H-1-oxa-3,3a-diaza-phenalene-5-carboxylic acid] the value was 273 to 275 °C; for `CN1COc2c(N3C[C@@H](N)C(C)(C)C3)c(F)cc3c(=O)c(C(=O)O)cn1c23` (hydrate or solvate) [Example 34, 9-((S)-4-Amino-3,3-dimethyl-pyrrolidin-1-yl)-8-fluoro-3-methyl-6-oxo-2,3-dihydro-6H-1-oxa-3,3a-diaza-phenalene-5-carboxylic acid], 230 °C (dec.); for `CN1COc2c(N3C[C@H](N)C(C)(C)C3)c(F)cc3c(=O)c(C(=O)O)cn1c23` (hydrate or solvate) [Example 35, 9-((R)-4-Amino-3,3-dimethyl-pyrrolidin-1-yl)-8-fluoro-3-methyl-6-oxo-2,3-dihydro-6H-1-oxa-3,3a-diaza-phenalene-5-carboxylic acid], 222 °C (dec.).
Then `CN1COc2c(N3CCC(C(O)c4nccs4)C3)c(F)cc3c(=O)c(C(=O)O)cn1c23` (centres unmarked) (hydrate or solvate) [Example 38, 8-Fluoro-9-[3-(hydroxy-thiazol-2-yl-methyl)-pyrrolidin-1-yl]-3-methyl-6-oxo-2,3-dihydro-6H-1-oxa-3,3a-diaza-phenalene-5-carboxylic acid], with 215 to 217 °C; and `CN1COc2c(N3CCC(C(N)c4nccs4)C3)c(F)cc3c(=O)c(C(=O)O)cn1c23` (centres unmarked) (hydrate or solvate) [Example 39, 9-[3-(Amino-thiazol-2-yl-methyl)-pyrrolidin-1-yl]-8-fluoro-3-methyl-6-oxo-2,3-dihydro-6H-1-oxa-3,3a-diaza-phenalene-5-carboxylic acid], with 233 to 235 °C; and `CN1COc2c(N3CC(N)C(C)(C)C3)c(F)cc3c(=O)c(C(=O)O)cn1c23` (racemic) (hydrate or solvate) [Example 33, 9-((R,S)-4-Amino-3,3-dimethyl-pyrrolidin-1-yl)-8-fluoro-3-methyl-6-oxo-2,3-dihydro-6H-1-oxa-3,3a-diaza-phenalene-5-carboxylic acid], with 237 °C (dec.).
